Data as given in US8754068B2, “Modified C-3 betulinic acid derivatives as HIV maturation inhibitors” (priority 2010, dated 2014).

What follows are compounds tested on recombinant NL4-3 virus (Renilla luciferase in nef, Gag P373S) (assay: HIV cell culture assay (luciferase reporter virus in MT-2 cells)). Conditions: NL43.
Type: cell-based
Procedure: HIV cell culture assay—MT-2 cells and 293T cells were obtained from the NIH AIDS Research and Reference Reagent Program. MT-2 cells were propagated in RPMI 1640 media supplemented with 10% heat inactivated fetal bovine serum, […]. The 293T cells were propagated in DMEM media supplemented with 10% heat inactivated fetal bovine serum (FBS), 100 units/ml penicillin G and 100 μg/ml streptomycin. The proviral DNA clone of NL4-3 was obtained from the NIH AIDS Research and Reference Reagent Program. A recombinant NL4-3 virus, in which a section of the nef gene from NL4-3 was replaced with the Renilla luciferase gene, was used as a reference virus. In addition, residue Gag P373 was converted to P373S. Briefly, the recombinant virus was prepared by transfection of the altered proviral clone of NL4-3. Transfections were performed in 293T cells using LipofectAMINE PLUS from Invitrogen (Carlsbad, Calif.), according to manufacturer's instruction. The virus was titered in MT-2 cells using luciferase enzyme activity as a marker. Luciferase was quantitated using the Dual Luciferase kit from Promega (Madison, Wis.), with modifications to the manufacturer's protocol. The diluted Passive Lysis solution was pre-mixed with the re-suspended Luciferase Assay Reagent and the re-suspended Stop & Glo Substrate (2:1:1 ratio). Fifty (50) μL of the mixture was added to each aspirated well on assay plates and luciferase activity was measured immediately on a Wallac TriLux (Perkin-Elmer). Antiviral activities of inhibitors toward the recombinant virus were quantified by measuring luciferase activity in cells infected for 4-5 days with NLRluc recombinants in the presence serial dilutions of the inhibitor. Table 1 is the key for the data in Table 2.

**Q.** With `C=C(C)[C@@H]1CC[C@]2(CO)CC[C@]3(C)[C@H](CC[C@@H]4[C@@]5(C)CC=C(c6ccc(C(=O)O)cc6F)C(C)(C)[C@@H]5CC[C@]43C)[C@@H]12` [Example 5k, 3-fluoro-4-((1R,3aS,5aR,5bR,7aR,11aS,11bR,13aR,13bR)-3a-(hydroxymethyl)-5a,5b,8,8,11a-pentamethyl-1-(prop-1-en-2-yl)-2,3,3a,4,5,5a,5b,6,7,7a,8,11,11a,11b,12,13,13a,13b-octadecahydro-1H-cyclopenta[a]chrysen-9-yl)benzoic acid] as the compound, how does the EC50 read?
**A.** < 1000 nM

**Q.** For `C=C(C)[C@@H]1CC[C@]2(C(=O)O)CC[C@]3(C)[C@H](CC[C@@H]4[C@@]5(C)CC=C(c6ccc(C(=O)NS(C)(=O)=O)cc6)C(C)(C)[C@@H]5CC[C@]43C)[C@@H]12` [Example 6b, (1R,3aS,5aR,5bR,7aR,11aS,13aR,13bR)-5a,5b,8,8,11a-pentamethyl-9-(4-(methylsulfonylcarbamoyl)phenyl)-1-(prop-1-en-2-yl)-2,3,3a,4,5,5a,5b,6,7,7a,8,11,11a,11b,12,13,13a,13b-octadecahydro-1H-cyclopenta[a]chrysene-3a-carboxylic acid], which EC50 is on record?
**A.** < 1000 nM

**Q.** With `C=C(C)[C@@H]1CC[C@]2(C(=O)O)CC[C@]3(C)[C@H](CC[C@@H]4[C@@]5(C)CC=C(c6ccccc6CCC(=O)O)C(C)(C)[C@@H]5CC[C@]43C)[C@@H]12` [Example 4l, (1R,3aS,5aR,5bR,7aR,11aS,11bR,13aR,13bR)-9-(2-(2-carboxyethyl)phenyl)-5a,5b,8,8,11a-pentamethyl-1-(prop-1-en-2-yl)-2,3,3a,4,5,5a,5b,6,7,7a,8,11,11a,11b,12,13,13a,13b-octadecahydro-1H-cyclopenta[a]chrysene-3a-carboxylic acid] as the compound, how does the EC50 read?
**A.** > 1000 nM

**Q.** `C=C(C)[C@@H]1CC[C@]2(C(=O)O)CC[C@]3(C)[C@H](CC[C@@H]4[C@@]5(C)CC=C(c6cccc(-c7nn[nH]n7)c6)C(C)(C)[C@@H]5CC[C@]43C)[C@@H]12` [Example 4i, (1R,3aS,5aR,5bR,7aR,11aS,11bR,13aR,13bR)-9-(3-(2H-tetrazol-5-yl)phenyl)-5a,5b,8,8,11a-pentamethyl-1-(prop-1-en-2-yl)-2,3,3a,4,5,5a,5b,6,7,7a,8,11,11a,11b,12,13,13a,13b-octadecahydro-1H-cyclopenta[a]chrysene-3a-carboxylic acid] was tested. Which EC50 did it give?
**A.** > 1000 nM

**Q.** For `C=C(C)[C@@H]1CC[C@]2(C(=O)O)CC[C@]3(C)[C@H](CC[C@@H]4[C@@]5(C)CC=C(c6ccc(/C=C/C(=O)O)cc6)C(C)(C)[C@@H]5CC[C@]43C)[C@@H]12` [Example 4h, (1R,3aS,5aR,5bR,7aR,11aS,11bR,13aR,13bR)-9-(4-((E)-2-carboxyvinyl)phenyl)-5a,5b,8,8,11a-pentamethyl-1-(prop-1-en-2-yl)-2,3,3a,4,5,5a,5b,6,7,7a,8,11,11a,11b,12,13,13a,13b-octadecahydro-1H-cyclopenta[a]chrysene-3a-carboxylic acid], which EC50 is on record?
**A.** < 1000 nM

**Q.** For `C=C(C)[C@@H]1CC[C@]2(CO)CC[C@]3(C)[C@H](CC[C@@H]4[C@@]5(C)CC=C(c6ccc(C(=O)O)cn6)C(C)(C)[C@@H]5CC[C@]43C)[C@@H]12` [Example 5u, 6-((1R,3aS,5aR,5bR,7aR,11aS,11bR,13aR,13bR)-3a-(hydroxymethyl)-5a,5b,8,8,11a-pentamethyl-1-(prop-1-en-2-yl)-2,3,3a,4,5,5a,5b,6,7,7a,8,11,11a,11b,12,13,13a,13b-octadecahydro-1H-cyclopenta[a]chrysen-9-yl)nicotinic acid], which EC50 is on record?
**A.** < 1000 nM

**Q.** With `C=C(C)[C@@H]1CC[C@]2(C(=O)O)CC[C@]3(C)[C@H](CC[C@@H]4[C@@]5(C)CC=C(c6cccc(C(=O)O)c6)C(C)(C)[C@@H]5CC[C@]43C)[C@@H]12` [Example 2a, (1R,3aS,5aR,5bR,7aR,11aS,13aR,13bR)-9-(3-carboxyphenyl)-5a,5b,8,8,11a-pentamethyl-1-(prop-1-en-2-yl)-2,3,3a,4,5,5a,5b,6,7,7a,8,11,11a,11b,12,13,13a,13b-octadecahydro-1H-cyclopenta[a]chrysene-3a-carboxylic acid] as the compound, how does the EC50 read?
**A.** > 1000 nM

**Q.** With `C=C(C)[C@@H]1CC[C@]2(C(=O)O)CC[C@]3(C)[C@H](CC[C@@H]4[C@@]5(C)CC=C(c6ccc(-c7cnc8ccccc8c7C(=O)O)cc6)C(C)(C)[C@@H]5CC[C@]43C)[C@@H]12` [Example 4m, 3-(4-((1R,3aS,5aR,5bR,7aR,11aS,11bR,13aR,13bR)-3a-carboxy-5a,5b,8,8,11a-pentamethyl-1-(prop-1-en-2-yl)-2,3,3a,4,5,5a,5b,6,7,7a,8,11,11a,11b,12,13,13a,13b-octadecahydro-1H-cyclopenta[a]chrysen-9-yl)phenyl)quinoline-4-carboxylic acid] as the compound, how does the EC50 read?
**A.** > 1000 nM

**Q.** `C=C(C)[C@@H]1CC[C@]2(CO)CC[C@]3(C)[C@H](CC[C@@H]4[C@@]5(C)CC=C(c6ccc(C(=O)O)s6)C(C)(C)[C@@H]5CC[C@]43C)[C@@H]12` [Example 5c, 5-((1R,3aS,5aR,5bR,7aR,11aS,11bR,13bR)-3a-(hydroxymethyl)-5a,5b,8,8,11a-pentamethyl-1-(prop-1-en-2-yl)-2,3,3a,4,5,5a,5b,6,7,7a,8,11,11a,11b,12,13,13a,13b-octadecahydro-1H-cyclopenta[a]chrysen-9-yl)thiophene-2-carboxylic acid] was tested. Which EC50 did it give?
**A.** 230 nM

**Q.** `C=C(C)[C@@H]1CC[C@]2(CO)CC[C@]3(C)[C@H](CC[C@@H]4[C@@]5(C)CC=C(c6ccc(S(N)(=O)=O)cc6)C(C)(C)[C@@H]5CC[C@]43C)[C@@H]12` [Example 5j, 4-((1R,3aS,5aR,5bR,7aR,11aS,11bR,13aR,13bR)-3a-(hydroxymethyl)-5a,5b,8,8,11a-pentamethyl-1-(prop-1-en-2-yl)-2,3,3a,4,5,5a,5b,6,7,7a,8,11,11a,11b,12,13,13a,13b-octadecahydro-1H-cyclopenta[a]chrysen-9-yl)benzenesulfonamide] was tested. Which EC50 did it give?
**A.** < 1000 nM

**Q.** How did the EC50 turn out when `C=C(C)[C@@H]1CC[C@]2(C(=O)O)CC[C@]3(C)[C@H](CC[C@@H]4[C@@]5(C)CC=C(c6ccc(C7(C(=O)O)CC7)cc6)C(C)(C)[C@@H]5CC[C@]43C)[C@@H]12` [Example 4c, (1R,3aS,5aR,5bR,7aR,11aS,11bR,13aR,13bR)-9-(4-(1-carboxycyclopropyl)phenyl)-5a,5b,8,8,11a-pentamethyl-1-(prop-1-en-2-yl)-2,3,3a,4,5,5a,5b,6,7,7a,8,11,11a,11b,12,13,13a,13b-octadecahydro-1H-cyclopenta[a]chrysene-3a-carboxylic acid] was run?
**A.** < 1000 nM

**Q.** `C=C(C)[C@@H]1CC[C@]2(CO)CC[C@]3(C)[C@H](CC[C@@H]4[C@@]5(C)CC=C(c6ccc(NS(C)(=O)=O)cc6)C(C)(C)[C@@H]5CC[C@]43C)[C@@H]12` [Example 5i, N-(4-((1R,3aS,5aR,5bR,7aR,11aS,11bR,13aR,13bR)-3a-(hydroxymethyl)-5a,5b,8,8,11a-pentamethyl-1-(prop-1-en-2-yl)-2,3,3a,4,5,5a,5b,6,7,7a,8,11,11a,11b,12,13,13a,13b-octadecahydro-1H-cyclopenta[a]chrysen-9-yl)phenyl)methanesulfonamide] was tested. Which EC50 did it give?
**A.** > 1000 nM

**Q.** Which EC50 does the source give for `C=C(C)[C@@H]1CC[C@]2(C(=O)O)CC[C@]3(C)[C@H](CC[C@@H]4[C@@]5(C)CC=C(c6cccc(CCC(=O)O)c6)C(C)(C)[C@@H]5CC[C@]43C)[C@@H]12` [Example 4k, (1R,3aS,5aR,5bR,7aR,11aS,11bR,13aR,13bR)-9-(3-(2-carboxyethyl)phenyl)-5a,5b,8,8,11a-pentamethyl-1-(prop-1-en-2-yl)-2,3,3a,4,5,5a,5b,6,7,7a,8,11,11a,11b,12,13,13a,13b-octadecahydro-1H-cyclopenta[a]chrysene-3a-carboxylic acid] here?
**A.** < 1000 nM

**Q.** How did the EC50 turn out when `C=C(C)[C@@H]1CC[C@]2(CO)CC[C@]3(C)[C@H](CC[C@@H]4[C@@]5(C)CC=C(c6ccc(C(=O)O)cc6Cl)C(C)(C)[C@@H]5CC[C@]43C)[C@@H]12` [Example 5n, 3-chloro-4-((1R,3aS,5aR,5bR,7aR,11aS,11bR,13aR,13bR)-3a-(hydroxymethyl)-5a,5b,8,8,11a-pentamethyl-1-(prop-1-en-2-yl)-2,3,3a,4,5,5a,5b,6,7,7a,8,11,11a,11b,12,13,13a,13b-octadecahydro-1H-cyclopenta[a]chrysen-9-yl)benzoic acid] was run?
**A.** < 1000 nM

**Q.** For `C=C(C)[C@@H]1CC[C@]2(C(=O)O)CC[C@]3(C)[C@H](CC[C@@H]4[C@@]5(C)CC=C(c6ccc(C(=O)NS(=O)(=O)C(C)C)cc6)C(C)(C)[C@@H]5CC[C@]43C)[C@@H]12` [Example 6a, (1R,3aS,5aR,5bR,7aR,11aS,13aR,13bR)-9-(4-(isopropylsulfonylcarbamoyl)phenyl)-5a,5b,8,8,11a-pentamethyl-1-(prop-1-en-2-yl)-2,3,3a,4,5,5a,5b,6,7,7a,8,11,11a,11b,12,13,13a,13b-octadecahydro-1H-cyclopenta[a]chrysene-3a-carboxylic acid], which EC50 is on record?
**A.** < 1000 nM
